Results as given in patent publication US20110318397A1, “METHOD FOR PREPARING HIGH PURITY GINSENOSIDE RD USING LACTOBACILLUS CASEI AND COSMETIC COMPOSITION FOR ANTI-WRINKLE COMPRISING THE HIGH PURITY GINSENOSIDE RD” (priority 2010, published 2011).
Where two headings read alike, the source gives them in different places.

Columns and labels:
[1] = test system: Human fibroblasts (WI-38); assay: Collagen synthesis, procollagen type-I C-peptide kit; format: cell-based; details: WI-38 fibroblasts, 24 h; for collagen production as compared to the control (sample-untreated cells): 1×10^−4% (w/v) or lower
Experimental: Human fibroblasts (WI-38) that had been stored at −80° C. or in liquid nitrogen were used. The cells were uniformly placed on a 96-well plate, with 2.0×10^4 cells/well.
After culturing in MEM (FBS 5%) for 24 hours, the medium was replaced with a fresh serum-free medium and the cells were treated with gradually diluted sample. […] After treatment with the sample, the cells were further cultured for 24 hours on a 96-well plate. Then, the quantity of collagen was measured using a collagen measurement kit (Procollagen type-I C-peptide MK101, Takara).

human fibroblasts = test system: human fibroblasts
Experimental: MTT [3-(4,5-dimethylthiazol-2-yl)-2,5-diphenyltetrazolium bromide, Sigma M5655] assay was carried out to test the effect of the sample on proliferation of human fibroblasts.
The fibroblasts that had been stored at −80° C. or in liquid nitrogen were used. The cells were uniformly placed on a 96-well plate, with 2.0×10^4 cells/well. After culturing in MEM (FBS 5%) for 24 hours, the medium was replaced with a fresh serum-free medium and the cells were treated with gradually diluted sample. The samples were ginsenoside Rd and retinol. After treatment with the sample, the cells were further cultured for 24 hours on a 96-well plate. Subsequently, after adding 10 μL of MTT solution (5 mg/mL) to each well, the cells were cultured for 4 hours. After removing the medium and adding 100 μL of dimethyl sulfoxide to each well followed by shaking for 10 minutes, absorbance was measured at 540 nm using an ELISA reader.

Structure (SMILES) | collagen production as compared to the control (sample-untreated cells) [1] | cell viability (human fibroblasts) [%] | cytotoxicity (human fibroblasts) | maximum collagen production ([1]; at 1×10^−2 (w/v) or lower) [%] | cell viability (human fibroblasts; human, 24 h) [%]
CC(C)=CCC[C@](C)(O)[C@H]1CC[C@]2(C)[C@@H]1[C@H](O)C[C@@H]1[C@@]3(C)CC[C@H](O)C(C)(C)[C@@H]3[C@@H](O[C@@H]3O[C@H](CO)[C@@H](O)[C@H](O)[C@H]3O[C@@H]3O[C@@H](C)[C@H](O)[C@@H](O)[C@H]3O)C[C@]12C [Rg2, ginsenoside Rg2] | remarkably decreased collagen production |  |  |  | 
CC(C)=CCC[C@](C)(O[C@@H]1O[C@H](CO)[C@@H](O)[C@H](O)[C@H]1O)[C@H]1CC[C@]2(C)[C@@H]1[C@H](O)C[C@@H]1[C@@]3(C)CC[C@H](O[C@@H]4O[C@H](CO)[C@@H](O)[C@H](O)[C@H]4O[C@@H]4O[C@H](CO)[C@@H](O)[C@H](O)[C@H]4O)C(C)(C)[C@@H]3CC[C@]12C [ginsenoside Rd] | slightly decreased collagen production | 100 | no cytotoxicity |  | 
CC1=C(/C=C/C(C)=C/C=C/C(C)=C/CO)C(C)(C)CCC1 [Retinol, retinol, reference compound] |  |  |  | 30 | 100
